# Test results: ChEMBL document CHEMBL1671626, “In vitro profiling of ceftaroline against a collection of recent bacterial clinical isolates from across the United States” (2008)
# Experiments:
# Format in all cases: functional
# [1] = tested on: Staphylococcus aureus; test: Antibacterial activity against methicillin-susceptible Staphylococcus aureus by CLSI M7-A7 broth microdilution method
# [2] = tested on: Staphylococcus aureus; test: Antibacterial activity against methicillin-susceptible Staphylococcus aureus assessed as susceptible isolates by CLSI M7-A7 broth microdilution method
# [3] = tested on: Staphylococcus aureus; test: Antibacterial activity against methicillin-resistant Staphylococcus aureus by CLSI M7-A7 broth microdilution method
# [4] = tested on: Staphylococcus aureus; test: Antibacterial activity against methicillin-resistant Staphylococcus aureus assessed as susceptible isolates by CLSI M7-A7 broth microdilution method
# [5] = tested on: Staphylococcus aureus; test: Antibacterial activity against coagulase-negative and oxacillin-susceptible Staphylococcus aureus by CLSI M7-A7 broth microdilution method
# [6] = tested on: Staphylococcus aureus; test: Antibacterial activity against coagulase-negative and oxacillin-susceptible Staphylococcus aureus assessed as susceptible isolates by CLSI M7-A7 broth microdilution method
# [7] = tested on: Staphylococcus aureus; test: Antibacterial activity against coagulase-negative and oxacillin-resistant Staphylococcus aureus by CLSI M7-A7 broth microdilution method
# [8] = tested on: Staphylococcus aureus; test: Antibacterial activity against coagulase-negative and oxacillin-resistant Staphylococcus aureus assessed as susceptible isolates by CLSI M7-A7 broth microdilution method
# [9] = tested on: Streptococcus pneumoniae; test: Antibacterial activity against penicillin-susceptible Streptococcus pneumoniae by CLSI M7-A7 broth microdilution method
# [10] = tested on: Streptococcus pneumoniae; test: Antibacterial activity against penicillin-resistant Streptococcus pneumoniae by CLSI M7-A7 broth microdilution method
# [11] = tested on: Streptococcus pyogenes; test: Antibacterial activity against erythromycin-susceptible Streptococcus pyogenes by CLSI M7-A7 broth microdilution method
# [12] = tested on: Streptococcus pyogenes; test: Antibacterial activity against erythromycin-susceptible Streptococcus pyogenes assessed as susceptible isolates by CLSI M7-A7 broth microdilution method
# [13] = tested on: Streptococcus pyogenes; test: Antibacterial activity against erythromycin-nonsusceptible Streptococcus pyogenes by CLSI M7-A7 broth microdilution method
# [14] = tested on: Streptococcus pyogenes; test: Antibacterial activity against erythromycin-nonsusceptible Streptococcus pyogenes assessed as susceptible isolates by CLSI M7-A7 broth microdilution method
# [15] = tested on: Streptococcus agalactiae; test: Antibacterial activity against erythromycin-susceptible Streptococcus agalactiae assessed as susceptible isolates by CLSI M7-A7 broth microdilution method
# [16] = tested on: Streptococcus agalactiae; test: Antibacterial activity against erythromycin-susceptible Streptococcus agalactiae by CLSI M7-A7 broth microdilution method
# [17] = tested on: Streptococcus agalactiae; test: Antibacterial activity against erythromycin-nonsusceptible Streptococcus agalactiae assessed as susceptible isolates by CLSI M7-A7 broth microdilution method
# [18] = tested on: Streptococcus agalactiae; test: Antibacterial activity against erythromycin-nonsusceptible Streptococcus agalactiae by CLSI M7-A7 broth microdilution method
# [19] = tested on: Streptococcus viridans; test: Antibacterial activity against penicillin-susceptible Streptococcus viridans by CLSI M7-A7 broth microdilution method
# [20] = tested on: Streptococcus viridans; test: Antibacterial activity against penicillin-susceptible Streptococcus viridans assessed as susceptible isolates by CLSI M7-A7 broth microdilution method
# [21] = tested on: Streptococcus viridans; test: Antibacterial activity against penicillin-nonsusceptible Streptococcus viridans by CLSI M7-A7 broth microdilution method
# [22] = tested on: Streptococcus viridans; test: Antibacterial activity against penicillin-nonsusceptible Streptococcus viridans assessed as susceptible isolates by CLSI M7-A7 broth microdilution method
# [23] = tested on: Streptococcus viridans; test: Antibacterial activity against penicillin-nonsusceptible Streptococcus viridans assessed as resistant isolates by CLSI M7-A7 broth microdilution method
# [24] = tested on: Enterococcus faecalis; test: Antibacterial activity against vancomycin-susceptible Enterococcus faecalis by CLSI M7-A7 broth microdilution method
# [25] = tested on: Enterococcus faecalis; test: Antibacterial activity against vancomycin-susceptible Enterococcus faecalis assessed as susceptible isolates by CLSI M7-A7 broth microdilution method
# [26] = tested on: Enterococcus faecalis; test: Antibacterial activity against vancomycin-susceptible Enterococcus faecalis assessed as resistant isolates by CLSI M7-A7 broth microdilution method
# [27] = tested on: Enterococcus faecalis; test: Antibacterial activity against vancomycin-resistant Enterococcus faecalis by CLSI M7-A7 broth microdilution method
# [28] = tested on: Enterococcus faecalis; test: Antibacterial activity against vancomycin-resistant Enterococcus faecalis assessed as resistant isolates by CLSI M7-A7 broth microdilution method
# [29] = tested on: Enterococcus faecium; test: Antibacterial activity against vancomycin-resistant Enterococcus faecium by CLSI M7-A7 broth microdilution method
# [30] = tested on: Enterococcus faecium; test: Antibacterial activity against vancomycin-resistant Enterococcus faecium assessed as susceptible isolates by CLSI M7-A7 broth microdilution method
# [31] = tested on: Enterococcus faecium; test: Antibacterial activity against vancomycin-resistant Enterococcus faecium assessed as resistant isolates by CLSI M7-A7 broth microdilution method
# [32] = tested on: Streptococcus pneumoniae; test: Antibacterial activity against penicillin-susceptible Streptococcus pneumoniae assessed as susceptible isolates by CLSI M7-A7 broth microdilution method
# [33] = tested on: Streptococcus viridans; test: Antibacterial activity against penicillin-susceptible Streptococcus viridans assessed as resistant isolates by CLSI M7-A7 broth microdilution method
# [34] = tested on: Moraxella catarrhalis; test: Antibacterial activity against beta lactamase-positive Moraxella catarrhalis by CLSI M7-A7 broth microdilution method
# [35] = tested on: Pasteurella multocida; test: Antibacterial activity against Pasteurella multocida by CLSI M7-A7 broth microdilution method
structure (smiles),measurement,setting,value
CCCCCCCCCC(=O)N[C@@H](Cc1c[nH]c2ccccc12)C(=O)N[C@H](CC(N)=O)C(=O)N[C@@H](CC(=O)O)C(=O)N[C@@H]1C(=O)NCC(=O)N[C@@H](CCCN)C(=O)N[C@@H](CC(=O)O)C(=O)N[C@H](C)C(=O)N[C@@H](CC(=O)O)C(=O)NCC(=O)N[C@H](CO)C(=O)N[C@@H]([C@H](C)CC(=O)O)C(=O)N[C@@H](CC(=O)c2ccccc2N)C(=O)O[C@@H]1C,MIC50,[1],0.25 µg/mL
same,MIC90,[1],0.5 µg/mL
same,Activity,[2],99.4%
same,MIC50,[3],0.25 µg/mL
same,MIC90,[3],0.5 µg/mL
same,Activity,[4],99.2%
same,MIC50,[5],0.25 µg/mL
same,MIC90,[5],0.5 µg/mL
same,Activity,[6],100%
same,MIC50,[7],0.5 µg/mL
same,MIC90,[7],0.5 µg/mL
same,Activity,[8],99.7%
same,MIC50,[9],0.06 µg/mL
same,MIC90,[9],0.12 µg/mL
same,MIC50,[10],0.06 µg/mL
same,MIC90,[10],0.12 µg/mL
same,MIC,[11],≤ 0.03 µg/mL
same,MIC50,[11],≤ 0.03 µg/mL
same,MIC90,[11],0.06 µg/mL
same,Activity,[12],100%
same,MIC,[13],≤ 0.03 µg/mL
same,MIC50,[13],≤ 0.03 µg/mL
same,MIC90,[13],0.25 µg/mL
same,Activity,[14],100%
same,Activity,[15],100%
same,MIC50,[16],0.12 µg/mL
same,MIC90,[16],0.12 µg/mL
same,Activity,[17],100%
same,MIC50,[18],0.12 µg/mL
same,MIC90,[18],0.25 µg/mL
same,MIC50,[19],0.25 µg/mL
same,MIC90,[19],0.5 µg/mL
same,Activity,[20],100%
same,MIC50,[21],0.25 µg/mL
same,MIC90,[21],0.5 µg/mL
same,Activity,[22],100%
same,Activity,[23],0%
same,MIC50,[24],1 µg/mL
same,MIC90,[24],1 µg/mL
same,Activity,[25],100%
same,Activity,[26],0%
same,MIC50,[27],0.5 µg/mL
same,MIC90,[27],1 µg/mL
same,Activity,[28],0%
same,MIC50,[29],2 µg/mL
same,MIC90,[29],4 µg/mL
same,Activity,[30],100%
same,Activity,[31],0%
CC(=O)NC[C@H]1CN(c2ccc(N3CCOCC3)c(F)c2)C(=O)O1 [LINEZOLID],MIC50,[1],2 µg/mL
same,MIC90,[1],2 µg/mL
same,Activity,[2],100%
same,MIC50,[3],2 µg/mL
same,MIC90,[3],2 µg/mL
same,MIC50,[5],1 µg/mL
same,MIC90,[5],2 µg/mL
same,Activity,[6],100%
same,MIC50,[7],1 µg/mL
same,MIC90,[7],2 µg/mL
same,Activity,[8],99.3%
same,Activity,[32],100%
same,MIC50,[11],1 µg/mL
same,MIC90,[11],1 µg/mL
same,Activity,[12],100%
same,MIC,[13],1 µg/mL
same,MIC50,[13],1 µg/mL
same,MIC90,[13],1 µg/mL
same,Activity,[14],100%
same,Activity,[15],100%
same,MIC,[16],1 µg/mL
same,MIC50,[16],1 µg/mL
same,MIC90,[16],1 µg/mL
same,Activity,[17],100%
same,MIC50,[18],1 µg/mL
same,MIC90,[18],1 µg/mL
same,MIC50,[19],1 µg/mL
same,MIC90,[19],1 µg/mL
same,Activity,[20],100%
same,Activity,[33],0%
same,MIC50,[21],1 µg/mL
same,MIC90,[21],1 µg/mL
same,Activity,[22],100%
same,Activity,[23],0%
same,MIC50,[24],2 µg/mL
same,MIC90,[24],2 µg/mL
same,Activity,[25],100%
same,Activity,[26],0%
same,MIC50,[27],2 µg/mL
same,MIC90,[27],2 µg/mL
same,Activity,[28],0%
same,MIC50,[29],2 µg/mL
same,MIC90,[29],2 µg/mL
same,Activity,[30],100%
same,Activity,[31],0%
same,MIC50,[34],4 µg/mL
same,MIC90,[34],4 µg/mL
same,MIC50,[35],4 µg/mL
same,MIC90,[35],> 4 µg/mL
